Where a name gives a salt, the structure may show the parent alone.

Experimental findings from patent publication US11078204B2, “Heterocyclic derivatives as PI3K inhibitors” (Incyte Corporation, priority 2018, dated 2021) are described below.

For test [1], the target named is PI3Kγ (p110γ) Recombinant Human Protein (Homo sapiens (Human), UniProt P48736). Kind of test: PI3K-γ Scintillation Proximity Assay. The class given is biochemical. The conditions noted are these: 20 μM PIP2, 2 μM ATP, 13 nM PI3Kγ, 120 min. The text has this: Example B. PI3K-γ Scintillation Proximity Assay
[γ-^33P]ATP (10 mCi/mL) and Wheat Germ Agglutinin (WGA) YSi SPA Scintillation Beads was purchased from Perkin Elmer (Waltham, Mass.). Lipid kinase substrate, D-myo-Phosphatidylinositol 4,5-bisphosphate (PtdInS(4,5)P2)D (+)-sn-1,2-di-O-octanoylglyceryl, 3-O-phospho linked (PIP2), CAS 204858-53-7, was purchased from Echelon Biosciences (Salt Lake City, Utah). PI3Kγ (p110γ) Recombinant Human Protein was purchased from Life technology (Grand Island, N.Y.). ATP, MgCl2, DTT, EDTA, MOPS and CHAPS were purchased from Sigma Aldrich (St. Louis, Mo.).
(§1) The kinase reaction was conducted in polystyrene 384-well Greiner Bio-one white plate from Thermo Fisher Scientific in a final volume of 25 μL. Inhibitors were first diluted serially in DMSO and added to the plate wells before the addition of other reaction components. The final concentration of DMSO in the assay was 2%. The PI3Kγ assay was carried out at room temperature in 20 mM MOPS, pH 6.7, 10 mM MgCl2, 5 mM DTT and CHAPS 0.03%. Reactions were initiated by the addition of ATP, the final reaction mixture consisted of 20 μM PIP2, 2 μM ATP, 0.5 μCi [γ-^33p]ATP, 13 nM PI3Kγ. Reactions were incubated for 120 min and terminated by the addition of 40 μL SPA beads suspended in quench buffer: 163 mM potassium phosphate pH 7.8, 20% glycerol, 25 mM EDTA. The final concentration of SPA beads is 1.0 mg/mL. After the plate sealing, plates were shaken overnight at room temperature and centrifuged at 1500 rpm for 10 min, the radioactivity of the product was determined by scintillation counting on Topcount (PerkinElmer). IC50 determination was performed by fitting the curve of percent of the solvent control activity versus the log of the inhibitor concentration using the GraphPad Prism 6.0 software.

The target in test [2] is PI3Kδ (p110δ/p85α) Recombinant Human Protein (Homo sapiens (Human), UniProt O00329). Briefly: PI3Kδ Scintillation Proximity Assay. Format: biochemical. As to conditions: 20 μM PIP2, 2 μM ATP, 3.4 nM PI3Kδ, 120 min.
Text: Example C. PI3Kδ Scintillation Proximity Assay
[γ-^33P]ATP (10 mCi/mL) and Wheat Germ Agglutinin (WGA) YSi SPA Scintillation Beads was purchased from Perkin Elmer (Waltham, Mass.). Lipid kinase substrate, D-myo-Phosphatidylinositol 4,5-bisphosphate (PtdInS(4,5)P2)D (+)-sn-1,2-di-O-octanoylglyceryl, 3-O-phospho linked (PIP2), CAS 204858-53-7, was purchased from Echelon Biosciences (Salt Lake City, Utah). PI3Kδ (p110δ/p85α) Recombinant Human Protein was purchased from Eurofins (St Charles, Mo.). ATP, MgCl2, DTT, EDTA, MOPS and CHAPS were purchased from Sigma Aldrich (St. Louis, Mo.).
as §1, with “PI3Kδ” for “PI3Kγ”, “[γ-^33P]ATP, 3.4” for “[γ-^33p]ATP, 13”, “PI3Kδ.” for “PI3Kγ.”
(In general: In a scintillation proximity assay essentially only radioactivity close to the scintillant gives light.)

Sequence of PI3Kγ (p110γ) Recombinant Human Protein (P48736 whole entry): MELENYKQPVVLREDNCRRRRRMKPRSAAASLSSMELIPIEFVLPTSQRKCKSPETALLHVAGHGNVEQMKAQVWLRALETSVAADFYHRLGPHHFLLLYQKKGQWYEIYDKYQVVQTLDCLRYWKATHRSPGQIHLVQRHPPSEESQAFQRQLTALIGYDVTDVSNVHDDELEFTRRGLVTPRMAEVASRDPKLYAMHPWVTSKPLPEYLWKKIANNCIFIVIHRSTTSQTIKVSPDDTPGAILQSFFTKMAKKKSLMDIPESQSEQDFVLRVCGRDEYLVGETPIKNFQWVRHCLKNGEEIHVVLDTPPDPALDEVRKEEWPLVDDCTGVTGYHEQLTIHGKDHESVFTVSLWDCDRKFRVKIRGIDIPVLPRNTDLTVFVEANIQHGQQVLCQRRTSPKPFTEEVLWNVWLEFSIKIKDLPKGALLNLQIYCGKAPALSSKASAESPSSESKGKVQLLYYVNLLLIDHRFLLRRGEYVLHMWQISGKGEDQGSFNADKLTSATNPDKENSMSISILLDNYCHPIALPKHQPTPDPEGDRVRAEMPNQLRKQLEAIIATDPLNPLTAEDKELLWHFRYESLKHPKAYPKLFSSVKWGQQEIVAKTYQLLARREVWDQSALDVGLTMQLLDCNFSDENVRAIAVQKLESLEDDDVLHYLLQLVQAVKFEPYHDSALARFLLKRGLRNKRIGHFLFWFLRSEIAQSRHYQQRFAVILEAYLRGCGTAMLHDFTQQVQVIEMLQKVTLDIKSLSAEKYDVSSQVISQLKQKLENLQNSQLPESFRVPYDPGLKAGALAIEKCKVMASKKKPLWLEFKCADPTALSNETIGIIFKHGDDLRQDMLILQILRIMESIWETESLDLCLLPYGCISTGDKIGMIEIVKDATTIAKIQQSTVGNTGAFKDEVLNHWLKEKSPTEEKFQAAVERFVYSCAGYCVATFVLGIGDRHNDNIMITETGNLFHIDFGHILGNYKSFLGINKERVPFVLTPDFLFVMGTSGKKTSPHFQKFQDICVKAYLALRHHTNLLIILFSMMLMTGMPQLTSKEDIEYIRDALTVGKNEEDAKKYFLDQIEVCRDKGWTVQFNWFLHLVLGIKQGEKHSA
Sequence of PI3Kδ (p110δ/p85α) Recombinant Human Protein (O00329 whole entry): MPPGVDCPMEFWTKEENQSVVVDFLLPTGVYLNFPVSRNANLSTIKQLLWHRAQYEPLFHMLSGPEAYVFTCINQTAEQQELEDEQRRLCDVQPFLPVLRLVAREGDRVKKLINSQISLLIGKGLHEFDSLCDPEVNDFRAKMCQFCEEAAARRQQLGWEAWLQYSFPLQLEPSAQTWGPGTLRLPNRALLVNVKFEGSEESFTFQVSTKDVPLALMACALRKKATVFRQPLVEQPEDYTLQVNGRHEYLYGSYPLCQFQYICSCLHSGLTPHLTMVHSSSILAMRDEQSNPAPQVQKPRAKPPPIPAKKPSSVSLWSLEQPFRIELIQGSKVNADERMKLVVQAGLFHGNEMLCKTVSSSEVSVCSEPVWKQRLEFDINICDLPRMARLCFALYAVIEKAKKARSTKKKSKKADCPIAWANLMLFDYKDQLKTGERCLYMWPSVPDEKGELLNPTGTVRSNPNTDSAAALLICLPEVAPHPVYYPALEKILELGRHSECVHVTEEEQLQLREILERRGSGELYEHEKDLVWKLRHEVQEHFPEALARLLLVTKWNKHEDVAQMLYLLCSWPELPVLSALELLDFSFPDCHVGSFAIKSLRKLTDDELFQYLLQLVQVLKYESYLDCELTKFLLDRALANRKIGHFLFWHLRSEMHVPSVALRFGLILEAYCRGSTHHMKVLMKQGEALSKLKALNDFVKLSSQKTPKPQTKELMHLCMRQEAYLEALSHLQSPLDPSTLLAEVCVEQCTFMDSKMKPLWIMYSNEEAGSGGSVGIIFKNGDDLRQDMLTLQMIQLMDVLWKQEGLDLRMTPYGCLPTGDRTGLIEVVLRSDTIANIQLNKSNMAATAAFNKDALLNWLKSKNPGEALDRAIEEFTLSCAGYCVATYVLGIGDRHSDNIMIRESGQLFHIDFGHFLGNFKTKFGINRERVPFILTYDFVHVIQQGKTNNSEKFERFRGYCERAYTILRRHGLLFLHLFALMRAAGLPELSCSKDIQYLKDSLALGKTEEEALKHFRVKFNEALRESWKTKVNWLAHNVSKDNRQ
Sequence of PI3Kδ (p110δ/p85α) Recombinant Human Protein (P27986 whole entry partner): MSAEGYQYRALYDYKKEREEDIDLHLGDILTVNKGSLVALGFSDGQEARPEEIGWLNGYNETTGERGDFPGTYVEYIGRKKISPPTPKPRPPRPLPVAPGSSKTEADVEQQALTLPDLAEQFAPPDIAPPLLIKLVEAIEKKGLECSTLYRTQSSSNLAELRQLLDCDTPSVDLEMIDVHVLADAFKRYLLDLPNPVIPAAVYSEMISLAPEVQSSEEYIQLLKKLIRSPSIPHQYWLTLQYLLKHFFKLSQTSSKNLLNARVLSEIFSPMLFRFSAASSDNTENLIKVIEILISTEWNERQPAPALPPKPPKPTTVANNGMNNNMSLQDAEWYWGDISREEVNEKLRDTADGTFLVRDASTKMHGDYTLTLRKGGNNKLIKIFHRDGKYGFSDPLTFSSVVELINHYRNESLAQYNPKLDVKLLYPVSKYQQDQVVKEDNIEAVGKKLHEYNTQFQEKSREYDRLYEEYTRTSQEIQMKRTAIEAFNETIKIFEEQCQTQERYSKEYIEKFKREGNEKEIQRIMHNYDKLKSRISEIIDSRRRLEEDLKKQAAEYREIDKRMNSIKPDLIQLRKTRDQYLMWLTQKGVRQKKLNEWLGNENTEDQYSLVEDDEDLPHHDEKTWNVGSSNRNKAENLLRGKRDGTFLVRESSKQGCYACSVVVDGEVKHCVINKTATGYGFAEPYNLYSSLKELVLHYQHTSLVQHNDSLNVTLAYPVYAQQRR

Usually IC50 stands for the concentration needed to halve the response being measured. As to `C[C@@H](C1CC1)N1Cc2cc(-c3cnc4c(N)nc(C(=O)N5CC(O)C5)cn34)ccc2C1=O` (single isomer, unassigned) [Example 30, trifluoroacetate salt], the IC50 is at most 0.1 µM in test [1] and at least 2 µM in test [2].
In the case of `CC(C1CC1)n1cc2cc(-c3cnc4c(N)ncnn34)ncc2n1` (stereo not shown) [Example 26, 7-(2-(1-Cyclopropylethyl)-2H-pyrazolo[3,4-c]pyridin-5-yl)imidazo[2,1-f][1,2,4]triazin-4-amine, trifluoroacetate], the concentration for half-maximal inhibition (IC50) in test [1] was at most 0.1 µM; in test [2], at least 2 µM.
With `Cc1cc(-c2cnc3c(N)ncnn23)cc2cnn(C(C)C3CC3)c12` (stereo not shown) [Example 19, 7-(1-(1-Cyclopropylethyl)-7-methyl-1H-indazol-5-yl)imidazo[2,1-f][1,2,4]triazin-4-amine trifluoroacetate salt], the IC50 in test [1] was at most 0.5 µM; in test [2], at least 2 µM.
For `CC(=O)NCC(C1CC1)N1Cc2cc(-c3cnc4c(N)nc(C(F)(F)F)cn34)ccc2C1=O` (racemic) [Example 44, N-(2-(5-(8-Amino-6-(trifluoromethyl)imidazo[1,2-a]pyrazin-3-yl)-1-oxoisoindolin-2-yl)-2-cyclopropylethyl)acetamide, trifluoroacetate salt], in that order: under 2 µM and at least 2 µM.
For `NCC(C1CC1)N1Cc2cc(-c3cnc4c(N)nc(C(F)(F)F)cn34)ccc2C1=O` (racemic) [Example 42, 2-(2-Amino-1-cyclopropylethyl)-5-(8-amino-6-(trifluoromethyl)imidazo[1,2-a]pyrazin-3-yl)isoindolin-1-one, trifluoroacetate salt], in that order: under 2 µM and at least 2 µM.
For `CCN1Cc2cc(-c3cnc4c(N)ncnn34)ccc2C1=O` [Example 10, 5-(4-Aminoimidazo[2,1-f][1,2,4]triazin-7-yl)-2-ethylisoindolin-1-one trifluoroacetate salt], in that order: at most 0.5 µM and under 2 µM.
Consider `Nc1nc(C(F)(F)F)cn2c(-c3ccc4c(c3)CN(C(C(=O)O)C3CC3)C4=O)cnc12` (racemic) [Example 47, 2-(5-(8-Amino-6-(trifluoromethyl)imidazo[1,2-a]pyrazin-3-yl)-1-oxoisoindolin-2-yl)-2-cyclopropylacetic acid, trifluoroacetate salt], for which the IC50 was under 2 µM in test [1] and at least 2 µM in test [2].
Regarding `CC(C)c1cn2cc(-c3cnc4c(N)ncnn34)ccc2n1` [Example 22, 7-(2-isopropylimidazo[1,2-a]pyridin-6-yl)imidazo[2,1-f][1,2,4]triazin-4-amine], the figures for the IC50 in test [1] and in test [2] were at most 0.5 µM and at least 2 µM, respectively.
For `CC(c1cn2cc(-c3cnc4c(N)ncnn34)ccc2n1)C1CC1` (stereo not shown) [Example 27, 7-(2-(1-Cyclopropylethyl)imidazo[1,2-a]pyridin-6-yl)imidazo[2,1-f][1,2,4]triazin-4-amine trifluoroacetate salt], in that order: at most 0.1 µM and at least 2 µM.
For `CC(C)c1cc2nc(-c3cnc4c(N)ncnn34)ccn2n1` [Example 24, 7-(2-Isopropylpyrazolo[1,5-a]pyrimidin-5-yl)imidazo[2,1-f][1,2,4]triazin-4-amine trifluoroacetate salt], in that order: under 2 µM and at least 2 µM.
For `Nc1nc(C(F)(F)F)cn2c(-c3ccc4c(c3)CN(C(CO)C3CC3)C4=O)cnc12` (racemic) [Example 46, 5-(8-Amino-6-(trifluoromethyl)imidazo[1,2-a]pyrazin-3-yl)-2-(1-cyclopropyl-2-hydroxyethyl)isoindolin-1-one, trifluoroacetate salt], in that order: at most 0.5 µM and at least 2 µM.
Take `CNC(=O)C(C1CC1)N1Cc2cc(-c3cnc4c(N)nc(C(F)(F)F)cn34)ccc2C1=O` (racemic) [Example 45, 2-(5-(8-Amino-6-(trifluoromethyl)imidazo[1,2-a]pyrazin-3-yl)-1-oxoisoindolin-2-yl)-2-cyclopropyl-N-methylacetamide, trifluoroacetate salt]: the values for the half-maximal inhibitory concentration (IC50) in test [1] and in test [2] were under 2 µM and at least 2 µM, respectively.
In the case of `CC(c1ccccc1)N1Cc2cc(-c3cnc4c(N)nc(C(F)(F)F)cn34)ccc2C1=O` (racemic) [Example 11, 5-(8-Amino-6-(trifluoromethyl)imidazo[1,2-a]pyrazin-3-yl)-2-(1-phenylethyl)isoindolin-1-one 1.4× trifluoroacetate salt], the IC50 in test [1] is at most 0.1 µM; in test [2], at least 2 µM.
Take `CC(C)(C)OC(=O)NCC(C1CC1)N1Cc2cc(-c3cnc4c(N)nc(C(F)(F)F)cn34)ccc2C1=O` (racemic) [Example 41, tert-Butyl (2-(5-(8-amino-6-(trifluoromethyl)imidazo[1,2-a]pyrazin-3-yl)-1-oxoisoindolin-2-yl)-2-cyclopropylethyl)carbamate]: the IC50 in test [1] is at most 0.5 µM; in test [2], at least 2 µM.
In the case of `CCN1Cc2cc(-c3cnc4c(N)nc(C(F)(F)F)cn34)ccc2C1=O` [Example 9, 5-(8-Amino-6-(trifluoromethyl)imidazo[1,2-a]pyrazin-3-yl)-2-ethylisoindolin-1-one trifluoroacetate salt], the IC50 in test [1] is at most 0.5 µM; in test [2] it was under 2 µM.
Regarding `CC(C1CC1)n1nc2ccc(-c3cnc4c(N)ncnn34)cc2n1` (racemic) [Example 20, 7-(2-(1-cyclopropylethyl)-2H-benzo[d][1,2,3]triazol-5-yl)imidazo[2,1-f][1,2,4]triazin-4-amine trifluoroacetate salt], the figures for the IC50 in test [1] and in test [2] were at most 0.5 µM and at least 2 µM, respectively.
For `CC(C)c1cc2cc(-c3cnc4c(N)ncnn34)ccn2n1` [Example 23, 7-(2-Isopropylpyrazolo[1,5-a]pyridin-5-yl)imidazo[2,1-f][1,2,4]triazin-4-amine trifluoroacetate salt], in that order: at most 0.5 µM and at least 2 µM.
For `CC(C)c1nc2ccc(-c3cnc4c(N)ncnn34)cn2n1` [Example 21, 7-(2-Isopropyl-[1,2,4]triazolo[1,5-a]pyridin-6-yl)imidazo[2,1-f][1,2,4]triazin-4-amine trifluoroacetate salt], in that order: at most 0.5 µM and at least 2 µM.
For `CS(=O)(=O)NCC(C1CC1)N1Cc2cc(-c3cnc4c(N)nc(C(F)(F)F)cn34)ccc2C1=O` (racemic) [Example 43, N-(2-(5-(8-Amino-6-(trifluoromethyl)imidazo[1,2-a]pyrazin-3-yl)-1-oxoisoindolin-2-yl)-2-cyclopropylethyl)methanesulfonamide, trifluoroacetate salt], the IC50 in test [1] is under 2 µM; in test [2], at least 2 µM.
For `Nc1nc(C(F)(F)F)cn2c(-c3ccc4c(c3)CNC4=O)cnc12` [Example 4, 5-(8-Amino-6-(trifluoromethyl)imidazo[1,2-a]pyrazin-3-yl)isoindolin-1-one trifluoroacetate salt], in that order: under 2 µM and under 2 µM.
